According to patent US6166000A, “Methods for preparation and use of 1α,24(S)-Dihydroxy vitamin . D.sub2” (priority 1995, dated 2000):
Like-named read-outs stand apart in the source and are kept apart here.

Key:
[1] = format: in vivo, rat
Description: Vitamin D2 or 24-OH-D2 was administered (either oral or intraperitoneal supplementation) to vitamin D-deficient rats. Lipid extracts of the plasma were prepared and the metabolites purified by the method of Horst et al. (Horst, R. L., Koszewski, N. J. and Reinhardt, T. A., Biochem., 29:578-82 (1990)) described below for synthesyzing standard biological 1α,24-(OH)2 D2.
Standard biological 1α,24-(OH)2 D2 was synthesized in vitro from 24-OH-D2 by incubating 10 μg of 24-OH-D2 in flask containing 5 ml of 20% kidney homogenates made from vitamin D-deficient chicks. The product of this reaction was isolated by HPLC and identified by mass spectrometry.

Hep 3B cells = experiment: Metabolite production in Hep 3B cells incubated with 1α-OH-D2; format: in vitro ADME, human; details: Experiment 2; substrate 1α-OH-D2 10 μM; photodiode array spectrophotometry
Description: Substantially pure 1α-(OH)D2 was obtained from Bone Care International, Inc. of Madison, Wis. The 1α-(OH)D2 was cultured for 48 hours with cells derived from a human hepatoma, Hep 3B, in medium devoid of fetal calf serum using known methods in the art.
Lipid extracts of the combined medium and cells were generated by known methods in the art and were subjected to high pressure liquid chromatography (HPLC) on Zorbax-S1L developed with hexane/isopropanol/methanol (91:7:2). The putative 1α,24(?)-(OH)2 D2 metabolite eluted between the parent 1α-(OH)D2 and standard 1α,25-(OH)2 D2 (also obtained from Bone Care International, Inc. of Madison, Wis.). (As used herein, the term "1α,24(?)-(OH)2 D2 " is meant to indicate that the epimeric form has not been identified.) The 1α,24(?)-(OH)2 D2 was further purified by this HPLC system before the metabolite's identification was undertaken using mass spectrometry analysis.
Hep 3B cells were incubated with 1α-OH-D2, as described above, at final concentrations of 1, 10, or 100 nM (Experiment 1), and 1 or 10 μM (Experiment 2) and 1α,24(S)-(OH)2 D2 was extracted and purified. The 1α,24(S)-(OH)2 D2 and 1α,25-(OH)2 D2 metabolites were quantitated by recovered radiolabel (Experiment 1) or by photodiode array spectrophotometry (Experiment 2).

vitamin D receptor (VDR) = target: T1, vitamin D receptor (VDR) (Homo sapiens, UniProt P11473); experiment: Vitamin D-dependent transcriptional activation: growth hormone production in COS-1 cells co-transfected with VDR plasmid and VDRE-GH plasmid; format: cell-based; details: for Total GH Production: averages of duplicate determinations
T1 sequence (P11473 1-427): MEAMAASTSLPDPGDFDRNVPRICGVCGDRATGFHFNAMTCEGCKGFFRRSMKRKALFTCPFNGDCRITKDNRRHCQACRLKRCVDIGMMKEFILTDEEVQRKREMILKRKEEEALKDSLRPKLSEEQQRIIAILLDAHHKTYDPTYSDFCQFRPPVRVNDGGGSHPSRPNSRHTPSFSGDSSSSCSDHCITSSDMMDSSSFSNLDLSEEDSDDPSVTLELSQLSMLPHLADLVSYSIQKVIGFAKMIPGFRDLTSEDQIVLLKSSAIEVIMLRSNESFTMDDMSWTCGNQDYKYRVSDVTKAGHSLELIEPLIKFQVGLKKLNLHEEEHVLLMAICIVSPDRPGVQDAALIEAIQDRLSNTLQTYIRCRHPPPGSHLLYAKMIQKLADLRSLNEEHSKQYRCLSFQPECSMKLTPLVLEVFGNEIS
Description: The biological activity in vitro of chemically synthesized 1α,24(S)-(OH)2 D2 and 1α,24(R)-(OH)2 D2 was measured using a vitamin D-dependent transcriptional activation model system in which a vitamin D receptor (VDR)-expressing plasmid pSG5-hVDR1/3and a plasmid p(CT4)^4 TKGH containing a Growth Hormone (GH)-gene, under the control of a vitamin D-responsive element (VDRE) were co-transfected into Green monkey kidney, COS-1 cells. DNA's for these two vectors were supplied by Dr. Mark Haussler, Department of Biochemistry, University of Arizona, Tucson, Ariz.
Tranfected cells were incubated with vitamin D metabolites and growth hormone production was measured.

[2] = tested on: 1,25-(OH)2 D3 receptor site; details: Ishizuka et al., Steroids 1981, 1982; cited from earlier work
[3] = tested on: human osteoporotic patients; details: dosages of 2.0 μg/day or higher; cited from earlier work
[4] = oral or intraperitoneal supplementation, vitamin D-deficient rats, HPLC

Compound: C=C1CC[C@H](O)C/C1=C/C=C1\CCC[C@]2(C)[C@@H]([C@H](C)/C=C/C(C)(O)C(C)C)CC[C@@H]12 (some centres unmarked) [24-OH-D2, 24-hydroxyvitamin D2]
- metabolite found in lipid extracts of plasma ([1]; rat, in vivo): one metabolite isolated co-migrated on HPLC with the standard 1α,24-(OH)2 D2

Compound: C=C1/C(=C\C=C2/CCC[C@]3(C)[C@@H]([C@H](C)/C=C/[C@H](C)C(C)(C)O)CC[C@@H]23)C[C@@H](O)C[C@@H]1O [1α,25-(OH)2 D2, 1α,25-dihydroxy vitamin D2, reference compound]
- Rate of Production (Hep 3B cells): 7.4 pmol per 10^6 cells/day

Compound: C=C1CC[C@H](O)C/C1=C/C=C1\CCC[C@]2(C)[C@@H]([C@H](C)CCCC(C)C)CC[C@@H]12 [vitamin D3]
- metabolite found in lipid extracts of plasma [1, 4]: no detectable 24-OH-D3

Compound: C=C1/C(=C\C=C2/CCC[C@]3(C)[C@@H]([C@H](C)/C=C/[C@](C)(O)C(C)C)CC[C@@H]23)C[C@@H](O)C[C@@H]1O [1α,24(R)-(OH)2 D2, 1α,24(R)-dihydroxy vitamin D2]
- Total GH Production (vitamin D receptor (VDR); inducer 10^-7 molar): 1300 ng/mL
- Total GH Production (vitamin D receptor (VDR); inducer 10^-8 molar): 1100 ng/mL
- Net vitamin D-inducible GH-production (vitamin D receptor (VDR); inducer 10^-9 molar): 36 ng/mL
- Total GH Production (vitamin D receptor (VDR); inducer 10^-9 molar): 80 ng/mL

Compound: C=C1CC[C@H](O)C/C1=C/C=C1\CCC[C@]2(C)[C@@H]([C@H](C)/C=C/[C@H](C)C(C)C)CC[C@@H]12 [vitamin D2, Vitamin D2]
- metabolite found in lipid extracts of plasma [1, 4]: one metabolite isolated co-migrated on HPLC with the standard 1α,24-(OH)2 D2

Compound: C=C1/C(=C\C=C2/CCC[C@]3(C)[C@@H]([C@H](C)CC[C@@H](O)C(C)C)CC[C@@H]23)C[C@@H](O)C[C@@H]1O [1α,24(R)-(OH)2 D3, 1α,24(R)-dihydroxyvitamin D3]
- binding to the 1,25-(OH)2 D3 receptor site compared with 1,25-(OH)2 D3 [2]: more tightly than does 1,25-(OH)2 D3 itself

Compound: C=C1/C(=C\C=C2/CCC[C@]3(C)[C@@H]([C@H](C)/C=C/[C@H](C)C(C)C)CC[C@@H]23)C[C@@H](O)C[C@@H]1O [1α-(OH)D2, 1α-hydroxy vitamin D2]
- loss of bone mass [3]: will reverse the loss of bone mass

Compound: C=C1CC[C@H](O)C/C1=C/C=C1\CCC[C@]2(C)[C@@H]([C@H](C)CCCC(C)(C)O)CC[C@@H]12 [25-OH-D3, 25-hydroxy vitamin D3, reference compound]
- Total GH Production (vitamin D receptor (VDR); inducer 10^-6 molar): 1100 ng/mL
